Measurements reported in patent publication US10105357B2, “Indication of antibiotic drugs for preparation of cancer inhibition pharmaceutical composition” (LAUNX BIOMEDICAL CO., LTD., priority 2014, dated 2018).

How the values were obtained:
TOV-21G = assay: Cell viability analysis, ovarian cancer TOV-21G; format: cell-based, human
[1] = tested on: Hep3B (hepatocellular carcinoma); assay: Cell viability analysis, hepatic cancer Hep3B; format: cell-based, human
AsPC-1 = assay: Cell viability analysis, pancreatic cancer AsPC-1; format: cell-based, human
[2] = tested on: AGS (Gastric Adenocarcinoma); assay: Cell viability analysis, gastric cancer AGS; format: cell-based, human
[3] = tested on: A549 (Lung Adenocarcinoma); assay: Cell viability analysis, lung cancer A549; format: cell-based, human
[4] = tested on: BCC (basal cell carcinoma); assay: Cell viability analysis, skin cancer BCC; format: cell-based, human
BxPC-3 = assay: Cell viability analysis, pancreatic cancer BxPC-3; format: cell-based, human
[5] = tested on: HepG2 (Hepatocellular Carcinoma); assay: Cell viability analysis, hepatic cancer HepG2; format: cell-based, human
T24 = assay: Cell viability analysis, bladder cancer T24; format: cell-based, human
[6] = tested on: A375 (Amelanotic Melanoma); assay: Cell viability analysis, skin cancer A375; format: cell-based, human
[7] = tested on: SAS (Tongue squamous cell carcinoma); assay: Cell viability analysis, tongue cancer SAS; format: cell-based, human
[8] = tested on: TSGH-8301 (Urinary Bladder Carcinoma); assay: Cell viability analysis, bladder cancer TSGH-8301; format: cell-based, human
[9] = tested on: HeLa (Cervix Adenocarcinoma); assay: Cell viability analysis, cervical cancer HeLa; format: cell-based, human
[10] = tested on: MKN-45 (Gastric Adenocarcinoma); assay: Cell viability analysis, gastric cancer MKN-45; format: cell-based, human
[11] = tested on: MCF7 (Mammary Gland, Adenocarcinoma); assay: Cell viability analysis, breast cancer MCF7; format: cell-based, human
[12] = tested on: HI650 (Lung Adenocarcinoma); assay: Cell viability analysis, lung cancer HI650; format: cell-based, human
[13] = tested on: 786-O (Renal adenocarcinoma); assay: Cell viability analysis, renal cancer 786-O; format: cell-based, human
[14] = tested on: MDA-MB-231 (Mammary Gland, Adenocarcinoma); assay: Cell viability analysis, breast cancer MDA-MB-231; format: cell-based, human
[15] = tested on: PC3 (p53−) (Prostate Adenocarcinoma); assay: Cell viability analysis, prostate cancer PC3; format: cell-based, human
[16] = tested on: HCT116 (p53+) (Colorectal Carcinoma)
NIH: OVCAR-3 = assay: Cell viability analysis, ovarian cancer NIH: OVCAR-3; format: cell-based, human
[17] = tested on: C-33A (Cervical carcinoma); assay: Cell viability analysis, cervical cancer C-33A; format: cell-based, human
[18] = tested on: LoVo (Colorectal Adenocarcinoma); assay: Cell viability analysis, colon cancer LoVo; format: cell-based, human
U-2OS = assay: Cell viability analysis, osteosarcoma U-2OS; format: cell-based, human

Structure (SMILES) | The results of antibiotic drug inhibiting cancer cell lines (cell viability analysis), TOV-21G (TOV-21G) | The results of antibiotic drug inhibiting cancer cell lines (cell viability analysis), Hep3B [1] | The results of antibiotic drug inhibiting cancer cell lines (cell viability analysis), AsPC-1 (AsPC-1) | The results of antibiotic drug inhibiting cancer cell lines (cell viability analysis), AGS [2] | The results of antibiotic drug inhibiting cancer cell lines (cell viability analysis), A549 [3] | The results of antibiotic drug inhibiting cancer cell lines (cell viability analysis), BCC [4] | The results of antibiotic drug inhibiting cancer cell lines (cell viability analysis), BxPC-3 (BxPC-3) | The results of antibiotic drug inhibiting cancer cell lines (cell viability analysis), HepG2 [5] | The results of antibiotic drug inhibiting cancer cell lines (cell viability analysis), T24 (T24) | The results of antibiotic drug inhibiting cancer cell lines (cell viability analysis), A375 [6] | The results of antibiotic drug inhibiting cancer cell lines (cell viability analysis), SAS [7] | The results of antibiotic drug inhibiting cancer cell lines (cell viability analysis), TSGH-8301 [8] | The results of antibiotic drug inhibiting cancer cell lines (cell viability analysis), HeLa [9] | The results of antibiotic drug inhibiting cancer cell lines (cell viability analysis), MKN-45 [10] | The results of antibiotic drug inhibiting cancer cell lines (cell viability analysis), MCF-7 [11] | The results of antibiotic drug inhibiting cancer cell lines (cell viability analysis), H1650 [12] | The results of antibiotic drug inhibiting cancer cell lines (cell viability analysis), 786-O [13] | The results of antibiotic drug inhibiting cancer cell lines (cell viability analysis), MDA-MB231 [14] | The results of antibiotic drug inhibiting cancer cell lines (cell viability analysis), PC-3 [15] | viability [16] [%] | also measured
O=C(Nc1ccc([N+](=O)[O-])cc1Cl)c1cc(Cl)ccc1O [Niclosamide (Niclocide)] | 17.59 | 60.79 | 40.72 | 23.05 | 16.68 | 30.66 | 41.93 | 37.55 | 26.49 | 20.26 | 23.94 | 35.94 | 25.4 | 50.74 | 33.36 | 36.77 | 25.52 | 37.69 | 42.84 | 23.9 | The results of antibiotic drug inhibiting cancer cell lines (cell viability analysis), NIH-OVCAR-3 (NIH: OVCAR-3): 54.68; The results of antibiotic drug inhibiting cancer cell lines (cell viability analysis), C-33A [17]: 39.49; The results of antibiotic drug inhibiting cancer cell lines (cell viability analysis), LoVo [18]: 41.95; The results of antibiotic drug inhibiting cancer cell lines (cell viability analysis), U2OS (U-2OS): 26.74
CS(=O)(=O)c1ccc([C@@H](O)[C@@H](CO)NC(=O)C(Cl)Cl)cc1 [Thiamphenicol (Thiophenicol)] | 105.7 | 103.3 | 102.5 | 140.3 | 97.41 | 111.8 | 86.08 | 143.9 | 164 | 112 | 54.04 | 136.8 | 90.82 | 177 | 89.24 | 94.92 | 93.48 | 95.4 | 150.2 | 150 | The results of antibiotic drug inhibiting cancer cell lines (cell viability analysis), NIH-OVCAR-3 (NIH: OVCAR-3): 115.7; The results of antibiotic drug inhibiting cancer cell lines (cell viability analysis), C-33A [17]: 140.2; The results of antibiotic drug inhibiting cancer cell lines (cell viability analysis), LoVo [18]: 96.08; The results of antibiotic drug inhibiting cancer cell lines (cell viability analysis), U2OS (U-2OS): 51.12
Cc1cc(C#N)cc(C)c1Oc1nc(Nc2ccc(C#N)cc2)nc(N)c1Br [Etravirine (TMC125)] | 28.26 | 78.35 | 41.11 | 49.66 | 37 | 46.3 | 41.88 | 68.31 | 56.73 | 37.32 | 34.01 | 56.13 | 47.73 | 62.38 | 56.33 | 51.13 | 59.38 | 95.38 | 53.42 | 54.1 | The results of antibiotic drug inhibiting cancer cell lines (cell viability analysis), NIH-OVCAR-3 (NIH: OVCAR-3): 64.29; The results of antibiotic drug inhibiting cancer cell lines (cell viability analysis), C-33A [17]: 63.88; The results of antibiotic drug inhibiting cancer cell lines (cell viability analysis), LoVo [18]: 45.66; The results of antibiotic drug inhibiting cancer cell lines (cell viability analysis), U2OS (U-2OS): 36.38
CC(=O)Oc1ccccc1C(=O)Nc1ncc([N+](=O)[O-])s1 [Nitazoxanide (Alinia, Annita)] | 62.56 | 106.8 | 84.09 | 99.04 | 95.57 | 76 | 89.5 | 107.5 | 76.47 | 94.2 | 78.89 | 87.18 | 84.93 | 97.28 | 79.28 | 85.86 | 44.2 | 91.23 | 90.27 | 98.4 | The results of antibiotic drug inhibiting cancer cell lines (cell viability analysis), NIH-OVCAR-3 (NIH: OVCAR-3): 104.5; The results of antibiotic drug inhibiting cancer cell lines (cell viability analysis), C-33A [17]: 103.9; The results of antibiotic drug inhibiting cancer cell lines (cell viability analysis), LoVo [18]: 94.76; The results of antibiotic drug inhibiting cancer cell lines (cell viability analysis), U2OS (U-2OS): 83.33
